In one test the target is human G9a enzyme (Homo sapiens (Human), UniProt Q96KQ7). Put plainly: G9a enzyme activity assay (TR-FRET). It counts as biochemical. As to conditions: 1 hour at room temperature. The method, then:
G9a Enzyme Activity Assay
The biochemical assay to measure G9a enzyme activity relies on time-resolved fluorescence energy transfer (TR-FRET) between europium cryptate (donor) and XL665 (acceptor). TR-FRET is observed when biotinylated histone monomethyl-H3K9 peptide is incubated with cryptate-labeled anti-dimethyl-histone H3K9 antibody (CisBio Cat#61KB2KAE) and streptavidin XL665 (CisBio Cat#610SAXLA), after enzymatic reaction of G9a.
The human G9a enzyme expressed in a baculovirus infected Sf9 cell expression system was obtained from BPS Biosciences (Cat. #51001). Enzyme activity assay was carried out in a white 384-well plate in a final volume of 20 μl, as follow: • 4 μl of vehicle or studied compound 2.5× concentrated prepared in assay buffer (50 mM Tris-HCl, 10 mM NaCl, 4 mM DTT, 0.01% Tween-20 pH9). Final percentage of DMSO was 0.5%. • 2 μl of 1 nM G9a enzyme diluted in assay buffer. Final concentration was 0.2 nM. • Start the reaction by adding 4 μl of substrate mixture containing 20 μM S-adenosylmethionine and 40 nM biotinylated histone monomethyl-H3K9 peptide. • Reaction was carried out during 1 hour at room temperature. • Enzyme activity was stopped by adding 5 μl of cryptate-labeled anti-dimethyl-histone H3K9 antibody. Final concentration 150 nM. • Then, add 5 μl of streptavidin XL665 beads. Final concentration of 16 μM. • Read the plate after 1 hour of incubation at room temperature.
(§1) For each well, fluorescence was measured at 620 nm and 665 nm. A ratio (665 nm/620 nm) was then calculated in order to minimize medium interferences. Positive control was obtained in the presence of the vehicle of the compounds. Negative control was obtained in the absence of G9a enzyme activity. Calculated IC50 values were determined using GraphPrism using 4-parameters inhibition curve.
(In TR-FRET formats the signal depends on donor and acceptor labels being close together.)

The target in another test is human DNMT1 (Homo sapiens (Human), UniProt P26358). Put plainly: DNMT1 enzyme activity assay (TR-FRET, EPIgeneous methyltransferase assay). It counts as biochemical. As to conditions: 15 minutes at 37° C. On the procedure: DNMT1 Enzyme Activity Assay
The biochemical assay to measure DNMT1 enzyme activity relies on time-resolved fluorescence energy transfer (TR-FRET) between lumi4-Tb (donor) and d2 (acceptor) using the EPlgeneous methyltransferase assay (CisBio Cat#62SAHPEB). TR-FRET is observed when antibody specific to S-adenosylhomocysteine labeled with Lumi4-Tb is incubated with d2-labeled S-adenosylhomocysteine. TR-FRET signal is inversely proportional to the concentration of SAH, product of DNMT1 enzyme activity, in the sample. The human DNMT1 was obtained from Reaction Biology Corp. (Cat# DMT-21-124).
Enzyme activity assay was carried out in a white 384-well plate in a final volume of 20 μl, as follow: • 4 μl of vehicle or studied compound 2.5× concentrated prepared in assay buffer (50 mM Tris-HCl, 1 mM EDTA, 1 mM DTT, 0.1% Triton X-100, 5% glycerol pH 7.5). Final percentage of DMSO was 0.5%. • 2 μl of […] DNMT1 enzyme diluted in assay buffer. Final concentration was 20 nM. • Start the reaction by adding 4 μl of substrate mixture containing 1 μM S-adenosylmethionine and 1 μM poly-deoxy inosine poly-deoxy cytosine (pdI-pdC) DNA. • Reaction was carried out during 15 minutes at 37° C. • Enzyme activity was stopped by adding 2 μl of buffer one of the EPIgeneous methyltransferase assay. • After 10 minutes at room temperature, it was added 4 μl of antibody specific to S-adenosylhomocysteine labeled with Lumi4-Tb 50× diluted in buffer two of the EPIgeneous methyltransferase assay. • Add 4 μl of d2-labeled S-adenosylhomocysteine 31× diluted in buffer two of the EPIgeneous methyltransferase assay. • Read the plate after 1 hour of incubation at room temperature.
as §1

Test [1] has as its system CEMO-1 cells (acute lymphocytic leukemia, ALL). The test can be described thus: Cell proliferation assay (CellTiter 96 Aqueous One), CEMO-1. It counts as cell-based. The settings on record: CEMO-1 (ALL), 48 hours of treatment. The method, then:
Cell proliferation was analyzed after 48 hours of in vitro treatment using the CellTiter 96 Aqueous One Solution Cell Proliferation Assay (Promega, Madison, W). This is a colorimetric method for determining the number of viable cells in proliferation.
For the assay, suspension cells were cultured by triplicate at a density of 1×10^6 cells/ml in 96-well plates (100.000 cells/well, 100 μl/well), except for OCI-Ly3 and OCI-Ly10 cell lines which were cultured at a density of 0.5×10^6 cells/ml (50,000 cells/well, 100 μl/well) and for HepG2, Hep3B and PLC/PRF/5 cell lines which were cultured at a density of 3000 cells/well, 100 μl/well). Adherent cells were obtained from 80-90% confluent flasks and 100 μl of cells were seeded at a density of 5000 cells/well in 96-well plates by triplicate. Before addition of the compounds, adherent cells were allowed to attach to the bottom of the wells for 12 hours. In all cases, only the 60 inner wells were used to avoid any border effects.
After 48 hours of treatment, plates with suspension cells were centrifuged at 800 g for 10 minutes and medium was removed. The plates with adherent cells were flicked to remove medium. Then, cells were incubated with 100 μl/well of medium and 20 μl/well of CellTiter 96 Aqueous One Solution reagent. After 1-3 hours of incubation at 37° C., absorbance was measured at 490 nm in a 96-well plate reader. The background absorbance was measured in wells with only cell line medium and solution reagent. Data was calculated as a percentage of total absorbance of treated cell/absorbance of non treated cells.
These cancer cell lines and primary cultures correspond to acute lymphocytic leukemia (ALL), CEMO-1, to activated B-cell-like diffuse large B-cell lymphoma (ABC-DLBCL), OCI-Ly3 and OCI-Ly10 and to hepatocellular carcinoma cells (HCC), HepG2, Hep3B and PLC/PRF/5.

pIC50: −log10 of the molar value.

The pIC50 is −log10 of the IC50, conventionally taken in molar units. Low values mean a large IC50, high ones a small IC50. The GI50 is the concentration at which growth is held to half of that of the control.

Chain of human G9a enzyme (Q96KQ7 whole entry): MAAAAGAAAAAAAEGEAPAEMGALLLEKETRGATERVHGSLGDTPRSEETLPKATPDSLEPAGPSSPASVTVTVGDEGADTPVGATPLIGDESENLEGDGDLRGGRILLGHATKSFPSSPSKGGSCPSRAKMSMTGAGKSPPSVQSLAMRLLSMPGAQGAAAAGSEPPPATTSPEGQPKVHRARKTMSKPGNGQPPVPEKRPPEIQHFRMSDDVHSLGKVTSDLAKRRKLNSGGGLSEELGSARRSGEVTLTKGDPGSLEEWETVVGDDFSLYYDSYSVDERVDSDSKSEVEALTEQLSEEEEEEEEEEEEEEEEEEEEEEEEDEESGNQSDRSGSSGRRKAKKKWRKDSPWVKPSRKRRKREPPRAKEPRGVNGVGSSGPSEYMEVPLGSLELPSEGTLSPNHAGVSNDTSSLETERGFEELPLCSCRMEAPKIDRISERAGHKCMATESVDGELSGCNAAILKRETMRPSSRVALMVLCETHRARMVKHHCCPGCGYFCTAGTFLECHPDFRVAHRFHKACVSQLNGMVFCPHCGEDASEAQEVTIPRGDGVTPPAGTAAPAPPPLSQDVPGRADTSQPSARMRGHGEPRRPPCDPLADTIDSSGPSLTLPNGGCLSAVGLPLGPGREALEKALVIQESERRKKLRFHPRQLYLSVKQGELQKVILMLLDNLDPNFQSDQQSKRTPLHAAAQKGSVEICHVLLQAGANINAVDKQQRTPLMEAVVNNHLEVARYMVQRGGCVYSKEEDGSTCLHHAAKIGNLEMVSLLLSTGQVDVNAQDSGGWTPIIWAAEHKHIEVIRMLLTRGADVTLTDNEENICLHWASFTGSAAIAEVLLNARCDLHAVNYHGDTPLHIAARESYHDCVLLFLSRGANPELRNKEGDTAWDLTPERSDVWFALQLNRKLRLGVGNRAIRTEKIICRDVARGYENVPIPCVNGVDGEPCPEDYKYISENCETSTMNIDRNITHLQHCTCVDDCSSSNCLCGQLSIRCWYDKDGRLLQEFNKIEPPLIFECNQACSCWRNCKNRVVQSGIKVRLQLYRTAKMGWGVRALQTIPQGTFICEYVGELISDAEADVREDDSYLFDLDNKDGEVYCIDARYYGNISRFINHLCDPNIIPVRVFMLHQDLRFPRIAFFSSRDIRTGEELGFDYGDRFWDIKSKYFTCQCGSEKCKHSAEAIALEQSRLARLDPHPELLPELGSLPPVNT
Chain of human DNMT1 (P26358 whole entry): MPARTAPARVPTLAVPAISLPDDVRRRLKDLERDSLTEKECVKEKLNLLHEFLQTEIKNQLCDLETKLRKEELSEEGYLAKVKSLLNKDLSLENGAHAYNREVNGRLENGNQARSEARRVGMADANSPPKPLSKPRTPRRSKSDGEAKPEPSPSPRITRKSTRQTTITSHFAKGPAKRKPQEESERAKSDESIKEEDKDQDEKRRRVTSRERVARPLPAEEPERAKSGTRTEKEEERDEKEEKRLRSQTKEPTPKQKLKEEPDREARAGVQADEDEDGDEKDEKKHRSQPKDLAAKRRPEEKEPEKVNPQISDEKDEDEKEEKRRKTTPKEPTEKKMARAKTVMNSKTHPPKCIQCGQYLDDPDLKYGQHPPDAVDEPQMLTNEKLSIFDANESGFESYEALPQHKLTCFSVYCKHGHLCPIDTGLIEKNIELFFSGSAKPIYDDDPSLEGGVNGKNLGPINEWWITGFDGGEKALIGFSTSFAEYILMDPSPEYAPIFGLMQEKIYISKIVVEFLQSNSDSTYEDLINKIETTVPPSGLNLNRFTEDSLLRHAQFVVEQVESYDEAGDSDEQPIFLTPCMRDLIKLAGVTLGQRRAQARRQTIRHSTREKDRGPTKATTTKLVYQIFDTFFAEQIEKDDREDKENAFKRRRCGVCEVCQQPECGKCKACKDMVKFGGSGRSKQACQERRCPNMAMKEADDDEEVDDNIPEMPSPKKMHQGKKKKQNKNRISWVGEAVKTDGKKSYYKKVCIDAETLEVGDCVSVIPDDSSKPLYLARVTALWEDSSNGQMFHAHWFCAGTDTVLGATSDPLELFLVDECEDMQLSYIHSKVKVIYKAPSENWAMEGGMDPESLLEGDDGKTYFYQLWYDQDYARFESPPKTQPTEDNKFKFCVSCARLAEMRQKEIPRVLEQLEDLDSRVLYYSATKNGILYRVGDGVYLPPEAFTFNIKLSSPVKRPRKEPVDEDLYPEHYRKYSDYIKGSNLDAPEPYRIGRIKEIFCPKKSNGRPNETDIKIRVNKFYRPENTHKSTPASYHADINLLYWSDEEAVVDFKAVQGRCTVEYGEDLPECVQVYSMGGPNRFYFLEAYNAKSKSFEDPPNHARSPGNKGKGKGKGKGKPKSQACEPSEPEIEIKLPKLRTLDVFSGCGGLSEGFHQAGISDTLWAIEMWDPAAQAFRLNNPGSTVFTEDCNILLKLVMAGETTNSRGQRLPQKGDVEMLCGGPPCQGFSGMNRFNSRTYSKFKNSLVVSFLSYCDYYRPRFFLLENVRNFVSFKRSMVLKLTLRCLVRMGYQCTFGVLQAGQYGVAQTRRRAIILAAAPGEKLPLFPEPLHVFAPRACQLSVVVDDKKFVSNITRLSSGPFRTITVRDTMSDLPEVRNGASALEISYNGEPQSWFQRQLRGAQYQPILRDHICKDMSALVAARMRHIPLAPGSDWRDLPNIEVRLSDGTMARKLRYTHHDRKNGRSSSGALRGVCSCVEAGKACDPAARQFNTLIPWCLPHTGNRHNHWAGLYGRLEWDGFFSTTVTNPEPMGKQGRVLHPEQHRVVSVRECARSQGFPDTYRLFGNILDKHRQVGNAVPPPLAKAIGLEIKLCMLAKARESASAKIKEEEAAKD

Turning to `COc1cc2c3c(c(-c4ccc(C)o4)nc2cc1OCCCN1CCCC1)CC[C@H](CC1CCN(C)CC1)N3` (single isomer, unassigned) [Compound 2-09], the pIC50 was greater than 7.00 against human G9a enzyme and 6.00 to 6.30 at human DNMT1.

Consider `COc1cc2c3c(c(-c4ccc(C)o4)nc2cc1OCCCN1CCCC1)CC[C@@H](CC1CCN(C)CC1)N3` (single isomer, unassigned) [Compound 2-10], for which the results for the pIC50 on human G9a enzyme and on human DNMT1 were greater than 7.00 and 6.00 to 6.30, respectively.

Turning to `COc1cc2c(cc1OCCCN1CCCC1)nc(-c1ccccc1)c1cc(CC3CCN(C)CC3)[nH]c12` [Compound 1-05], the values for the pIC50 at human G9a enzyme and against human DNMT1 were 6.30 to 7.00 and 6.00 to 6.30, respectively.

`COc1cc2c(cc1OCCCN1CCCC1)nc(-c1cc(C)oc1C)c1cc(CC3CCN(C)CC3)[nH]c12` [Compound 1-06]: the pIC50 against human G9a enzyme was 6.00 to 6.30; against human DNMT1 it was 5.00 to 6.00.

With `COc1ccc2c3c(c(-c4ccc(C)o4)nc2c1)CCCN3` [Compound 2-01, 8-methoxy-5-(5-methyl-2-furyl)-1,2,3,4-tetrahydrobenzo[h][1,6]naphthyridine], the pIC50 at human G9a enzyme is less than 5.00; on human DNMT1, 5.00 to 6.00.

In the case of `Cc1ccc(-c2nc3cc(OCCCN4CCCC4)ccc3c3c2CCCN3)o1` [Compound 2-02, 5-(5-methyl-2-furyl)-8-(3-pyrrolidin-1-ylpropoxy)-1,2,3,4-tetrahydrobenzo[h][1,6]naphthyridine], the pIC50 against human G9a enzyme is 5.00 to 6.00; on human DNMT1, 6.00 to 6.30.

On to `COc1cc2c3c(c(-c4ccc(C)o4)nc2cc1OCCCN1CCCC1)CCCN3` [Compound 2-03, 9-methoxy-5-(5-methyl-2-furyl)-8-(3-pyrrolidin-1-ylpropoxy)-1,2,3,4-tetrahydrobenzo[h][1,6]naphthyridine], for which the figures for the pIC50 against human G9a enzyme and at human DNMT1 were greater than 7.00 and 5.00 to 6.00, respectively. For the same compound, the GI50 in test [1] lay in the range of 1000 to 10000 nM.

As for `COc1cc2c3c(c(-c4ccc(C)o4)nc2cc1OCCCN1CCCC1)CCCN3CCCN1CCCC1` [Compound 2-04, 9-methoxy-5-(5-methyl-2-furyl)-8-(3-pyrrolidin-1-ylpropoxy)-1-(3-pyrrolidin-1-ylpropyl)-3,4-dihydro-2H-benzo[h][1,6]naphthyridine], the negative logarithm of the IC50 (pIC50) was less than 5.00 against human G9a enzyme and 6.00 to 6.30 against human DNMT1.

For `COc1cc2c3c(c(-c4ccc(C)o4)nc2cc1OCCCN1CCCC1)CCC(CC1CCNCC1)N3` (stereo not shown) [Compound 2-05, 9-methoxy-5-(5-methyl-2-furyl)-2-(4-piperidylmethyl)-8-(3-pyrrolidin-1-ylpropoxy)-1,2,3,4-tetrahydrobenzo[h][1,6]naphthyridine], the values for the pIC50 on human G9a enzyme and against human DNMT1 were greater than 7.00 and 6.00 to 6.30, respectively.

Consider `COc1cc2c3c(c(-c4ccc(C)o4)nc2cc1OCCCN1CCCC1)CCC(CC1CCN(C(C)=O)CC1)N3` (stereo not shown) [Compound 2-11, 1-[4-[[9-methoxy-5-(5-methyl-2-furyl)-8-(3-pyrrolidin-1-ylpropoxy)-1,2,3,4-tetrahydrobenzo[h][1,6]naphthyridin-2-yl]methyl]-1-piperidyl]ethanone], for which the values for the pIC50 at human G9a enzyme and against human DNMT1 were greater than 7.00 and 5.00 to 6.00, respectively.

With `COc1cc2c3c(c(-c4cc(C)oc4C)nc2cc1OCCCN1CCCC1)CCC(CC1CCN(C)CC1)N3` (stereo not shown) [Compound 2-13, 9-methoxy-5-(2,5-dimethyl-3-furyl)-2-[(1-methyl-4-piperidyl)methyl]-8-(3-pyrrolidin-1-ylpropoxy)-1,2,3,4-tetrahydrobenzo[h][1,6]naphthyridine], the values for the negative-log IC50 (pIC50) on human G9a enzyme and at human DNMT1 were greater than 7.00 and 5.00 to 6.00, respectively.

`COc1cc2c(cc1OCCCN1CCCC1)nc(-c1ccc(C)o1)c1cccnc12` [Compound 3-01, 9-methoxy-5-(5-methyl-2-furyl)-8-(3-pyrrolidin-1-ylpropoxy)benzo[h]-[1,6]naphthyridine]: the pIC50 against human G9a enzyme and against human DNMT1 was 5.00 to 6.00 each time.

Consider `COc1cc2c(cc1OCCCN1CCCC1)nc(-c1ccc(C)o1)c1ccc(CC3CCNCC3)nc12` [Compound 3-02, 9-methoxy-5-(5-methyl-2-furyl)-2-(4-piperidylmethyl)-8-(3-pyrrolidin-1-ylpropoxy)benzo[h][1,6]naphthyridine], for which the negative logarithm of the IC50 (pIC50) at human G9a enzyme was 6.30 to 7.00; at human DNMT1, 6.00 to 6.30.

For `COc1cc2c(cc1OCCCN1CCCC1)nc(-c1ccc(C)o1)c1ccc(CC3CCN(C)CC3)nc12` [Compound 3-03, 9-methoxy-5-(5-methyl-2-furyl)-2-[(1-methyl-4-piperidyl)methyl]-8-(3-pyrrolidin-1-ylpropoxy)benzo[h][1,6]naphthyridine], the results for the negative logarithm of the IC50 (pIC50) at human G9a enzyme and against human DNMT1 were greater than 7.00 and 5.00 to 6.00, respectively.

Regarding `COc1cc2c(cc1OCCCN1CCCC1)nc(-c1cc(C)oc1C)c1ccc(CC3CCN(C)CC3)nc12` [Compound 3-04, 9-methoxy-5-(2,5-dimethyl-3-furyl)-2-[(1-methyl-4-piperidyl)methyl]-8-(3-pyrrolidin-1-ylpropoxy)benzo[h][1,6-]naphthyridine], the pIC50 on human G9a enzyme is 6.30 to 7.00; on human DNMT1 it was less than 5.00.

In the case of `COc1cc2c(cc1OCCCN1CCCC1)nc(-c1ccc(C)o1)c1c(=O)n(C3CCN(C)CC3)[nH]c12` [Compound 4-03, 8-methoxy-4-(5-methyl-2-furyl)-2-(1-methyl-4-piperidyl)-7-(3-pyrrolidin-1-ylpropoxy)-1H-pyrazolo[4,3-c]quinolin-3-one], the results for the negative-log IC50 (pIC50) against human G9a enzyme and on human DNMT1 were less than 5.00 and 5.00 to 6.00, respectively.

As to `COc1cc2c(cc1OCCCN1CCCC1)nc(-c1ccc(C)o1)c1c(=O)n(CC3CCN(C)CC3)[nH]c12` [Compound 4-04, 8-methoxy-4-(5-methyl-2-furyl)-2-[(1-methyl-4-piperidyl)methyl]-7-(3-pyrrolidin-1-ylpropoxy)-1H-pyrazolo[4,3-c]quinolin-3-one], the pIC50 at human G9a enzyme was less than 5.00; on human DNMT1, 5.00 to 6.00.

Take `COc1cc2c(cc1OCCCN1CCCC1)nc(-c1ccc(C)o1)c1c(=O)n(CC3CCN(C)CC3)n(CC3CCN(C)CC3)c12` [Compound 4-05, 8-methoxy-4-(5-methyl-2-furyl)-1,2-bis[(1-methyl-4-piperidyl)methyl]-7-(3-pyrrolidin-1-ylpropoxy)pyrazolo[4,3-c]quinolin-3-one]: the results for the pIC50 against human G9a enzyme and against human DNMT1 were less than 5.00 and 5.00 to 6.00, respectively.

For the origin of these results see patent US10407423B2, “Compounds as inhibitors of DNA methyltransferases” (FUNDACIÓN PARA LA INVESTIGACIÓN MÉDICA APLICADA, priority 2015, dated 2019).
